SMILES strings stand for the structures.

The experiment concerns the target T1, acyl-CoA:cholesterol O-acyltransferase (ACAT) (Oryctolagus cuniculus, UniProt G1SFD9).
T1 construct: The intestinal mucosa of a white rabbit was homogenized and microsomal fraction was obtained by stepwise centrifugation; from tissue; host or cells: intestinal mucosa of white rabbit, microsomal fraction
T1 sequence (G1SFD9 1-524): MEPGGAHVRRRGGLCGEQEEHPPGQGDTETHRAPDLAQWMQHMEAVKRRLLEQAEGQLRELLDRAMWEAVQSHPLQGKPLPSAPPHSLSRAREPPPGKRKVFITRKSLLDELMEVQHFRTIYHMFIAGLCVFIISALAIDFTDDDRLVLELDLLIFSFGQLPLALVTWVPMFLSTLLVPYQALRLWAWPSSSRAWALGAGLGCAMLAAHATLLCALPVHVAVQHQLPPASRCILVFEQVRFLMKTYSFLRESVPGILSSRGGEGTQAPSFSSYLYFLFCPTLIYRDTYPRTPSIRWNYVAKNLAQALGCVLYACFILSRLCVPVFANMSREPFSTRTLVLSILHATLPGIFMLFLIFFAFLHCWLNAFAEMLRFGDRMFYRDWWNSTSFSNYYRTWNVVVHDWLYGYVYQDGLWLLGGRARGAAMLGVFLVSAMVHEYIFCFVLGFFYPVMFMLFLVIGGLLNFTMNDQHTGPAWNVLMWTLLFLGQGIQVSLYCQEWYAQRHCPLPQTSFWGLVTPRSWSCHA
The experiment is described as follows: Inhibitory activity on acyl-CoA:cholesterol O-acyltransferase (ACAT), intestinal mucosa microsomal fraction, [1-14C]oleyl-CoA incorporation into cholesterol esters. The experiment is classed as biochemical, white rabbit. Particulars: read-out: Inhibition rate %. The method, then: Inhibitory activity on acyl-CoA:cholesterol Oacyltransferase (ACAT)
The enzyme used in the test was prepared according to the method of Heider et al. [J. Lipid, Res. 24, 1127 (1983)]. The intestinal mucosa of a white rabbit was homogenized and microsomal fraction was obtained by stepwise centrifugation. The microsomal fraction was suspended in 0,154M phosphate buffer (pH 0 7.4) and stored at -80° C. until use.
ACAT activity was determined by a modification of the method of Helgerud et al. [J. Lipid Res. 22, 271 (1981)] by measuring radioactivity incorporated into cholesterol esters from [1-14C]oleyl-CoA, as an indication. As to the ACAT-inhibiting activity of each compound to be tested, the inhibition rate was calculated by the following equation.

As to `CCc1cccc(CC)c1NC(=O)Nc1sc2ccc(C(C)C)cc2c1-c1ccccc1Cl` [Compound 76, N-[3-(2-Chlorophenyl)-5-isopropyl-1-benzothiophen-2-yl]-N'-(2,6-diethylphenyl)urea], the inhibition at 0.01 µM worked out at 71%.

Turning to `CC(C)c1ccc2sc(NC(=O)Nc3c(C(C)C)cccc3C(C)C)c(-c3ccccc3Cl)c2c1` [Compound 77, N-[3-(2-chlorophenyl)-5-isopropyl-1-benzothiophen-2-yl]-N'-(2,6-diisopropylphenyl)urea], the inhibition at 0.01 µM worked out at 51.7%.

As to `Cc1cc2sc(NC(=O)Nc3c(C(C)C)cccc3C(C)C)c(-c3ccccc3Cl)c2cc1C` [Compound 81, N-(3-(2-Chlorophenyl)-5,6-dimethyl-1-benzothiophen-2-yl]-N'-(2,6-diisopropylphenyl)urea], the inhibition at 0.01 µM worked out at 41.4%.

Regarding `Cc1cc2sc(NC(=O)Nc3c(C)cccc3C(C)C)c(-c3ccccc3Cl)c2cc1C` [Compound 82, N-[3-(2-Chlorophenyl)-5,6-dimethyl-1-benzothiophen-2-yl]-N'-(2-isopropyl-6-methylphenyl)urea], the inhibition at 0.01 µM is 67%.

In the case of `Cc1cc2sc(NC(=O)Nc3c(C)cccc3N(C)C)c(-c3ccccc3Cl)c2cc1C` [Compound 83, N-[3-(2-Chlorophenyl)-5,6-dimethyl-1-benzothiophen-2-yl]-N'-(2-dimethylamino-6-methylphenyl)urea], the inhibition at 0.01 µM is 81.3%.

Take `Cc1cc2sc(NC(=O)Nc3ccc(F)cc3F)c(-c3ccccc3Cl)c2cc1C` [Compound 84, N-[3-(2-Chlorophenyl)-5,6-dimethyl-1-benzothiophen-2-yl]-N'-(2,4-difluorophenyl)urea]: the inhibition at 0.01 µM worked out at 78.6%.

For `Cc1cccc(C)c1NC(=O)Nc1sc2cc3c(cc2c1-c1ccccc1Cl)CCC3` [Compound 87, N-[3-(2-Chlorophenyl)-6,7-dihydro-5H-cyclopenta[f][1]benzothiophen-2-yl]-N'-(2,6-dimethylphenyl)urea], the inhibition at 0.01 µM was determined as 60.4%.

Take `CCc1cccc(CC)c1NC(=O)Nc1sc2cc3c(cc2c1-c1ccccc1Cl)CCC3` [Compound 88, N-[3-(2-Chlorophenyl)-6,7-dihydro-5H-cyclopenta[f][1]benzothiophen-2-yl]-N'-(2,6-diethylphenyl)urea]: the inhibition at 0.01 µM came to 85.8%.

As to `CC(C)c1cccc(C(C)C)c1NC(=O)Nc1sc2cc3c(cc2c1-c1ccccc1Cl)CCC3` [Compound 89, N-[3-(2-Chlorophenyl)-6,7-dihydro-5H-cyclopenta[f][1]benzothiophen-2-yl]-N'-(2,6-diisopropylphenyl)urea], the inhibition at 0.01 µM stood at 44.4%.

On to `Cc1cccc(C(C)C)c1NC(=O)Nc1sc2cc3c(cc2c1-c1ccccc1Cl)CCC3` [Compound 90, N-[3-(2-Chlorophenyl)-6,7-dihydro-5H-cyclopenta[f][1]benzothiophen-2-yl]-N'-(2-isopropyl-6-methylphenyl)urea], for which the inhibition at 0.01 µM came out at 75.4%.

As to `Cc1cccc(N(C)C)c1NC(=O)Nc1sc2cc3c(cc2c1-c1ccccc1Cl)CCC3` [Compound 91], the inhibition at 0.01 µM was 65%.

As to `O=C(Nc1ccc(F)cc1F)Nc1sc2cc3c(cc2c1-c1ccccc1Cl)CCC3` [Compound 92, N-(3-(2-Chlorophenyl)-6,7-dihydro-5H-cyclopenta[f][1]benzothiophen-2-yl]-N'-(2,4-difluorophenyl)urea], the inhibition at 0.01 µM is 81.7%.

Turning to `O=C(Nc1sc2cc3c(cc2c1-c1ccccc1Cl)CCC3)Nc1c(F)cccc1F` [Compound 93, N-[3-(2-Chlorophenyl)-6,7-dihydro-5H-cyclopenta[f][1]benzothiophen-2-yl]-N'-(2,6-difluorophenyl)urea], the inhibition at 0.01 µM was 69.7%.

In the case of `O=C(Nc1sc2cc3c(cc2c1-c1ccccc1Cl)CCC3)Nc1c(F)cc(F)cc1F` [Compound 94, N-[3-(2-Chlorophenyl)-6,7-dihydro-5H-cyclopenta[f][1]benzothiophen-2-yl]-N'-(2,4,6-trifluorophenyl)urea], the inhibition at 0.01 µM worked out at 76.7%.

Consider `O=C(Nc1sc2cc3c(cc2c1-c1ccccc1Cl)CCC3)Nc1c(Cl)cccc1Cl` [Compound 95, N-[3-(2-Chlorophenyl)-6,7-dihydro-5H-cyclopenta[f][1]benzothiophen-2-yl]-N'-(2,6-dichlorophenyl)urea], for which the inhibition at 0.01 µM is 66.4%.

For the molecule `CCc1cccc(CC)c1NC(=O)Nc1sc2cc3c(cc2c1-c1ccccc1Cl)CCCC3` [Compound 96, N-[3-(2-Chlorophenyl)-5,6,7,8-tetrahydronaphthono[2,3-b]thiophen-2-yl]-N'-(2,6-diethylphenyl)urea], the inhibition at 0.01 µM came to 80.7%.

Turning to `Cc1cccc(C(C)C)c1NC(=O)Nc1sc2cc3c(cc2c1-c1ccccc1Cl)CCCC3` [Compound 98, N-[3-(2-Chlorophenyl)-5,6,7,8-tetrahydronaphtho[2,3-b]thiophen-2-yl]-N'-(2-isopropyl-6-methylphenyl)urea], the inhibition at 0.01 µM was determined as 66%.

In the case of `O=C(Nc1ccc(F)cc1F)Nc1sc2cc3c(cc2c1-c1ccccc1Cl)CCCC3` [Compound 99, N-[3-(2-Chlorophenyl)-5,6,7,8-tetrahydronaphtho[2,3-b]thiophen-2-yl]-N'-(2,4-difluorophenyl)urea], the inhibition at 0.01 µM turned out to be 90.1%.

For the molecule `CC(C)c1cccc(C(C)C)c1NC(=O)Nc1sc2ccc([N+](=O)[O-])cc2c1-c1ccc(Cl)cc1Cl` [Compound 100, N-[3-(2,4-Dichlorophenyl)-5-nitro-1-benzothiophen-2-yl]-N'-(2,6-diisopropylphenyl)urea], the inhibition at 0.01 µM was determined as 18.4%.

Consider `CCc1cccc(CC)c1NC(=O)Nc1sc2cc(OC)c(OC)cc2c1-c1ccccc1Cl` [Compound 102, N-[3-(2-Chlorophenyl)-5,6-dimethoxy-1-benzothiophen-2-yl]-N'-(2,6-diethylphenyl)urea], for which the inhibition at 0.01 µM worked out at 43.3%.

In the case of `O=C(Nc1ccc(F)cc1F)Nc1sc2cc3c(cc2c1-c1ccc(Cl)cc1Cl)CCC3` [Compound 107, N-[3-(2,4-Dichlorophenyl)-6,7-dihydro-5H-cyclopenta[f][1]benzothiophen-2-yl]-N'-(2,4-difluorophenyl)urea], the inhibition at 0.01 µM is 36.2%.

With `Cc1ccccc1-c1c(NC(=O)Nc2c(C)cccc2C(C)C)sc2cc3c(cc12)CCC3` [Compound 111, N-(2-Isopropyl-6-methylphenyl)-N'-[3-(2methylphenyl)-6,7-dihydro-5H-cyclopenta[f][1]benzothiophen-2-yl]urea], the inhibition at 0.01 µM is 69.2%.

Consider `CCc1cccc(CC)c1NC(=O)Nc1sc2cc3c(cc2c1-c1ccccc1C(F)(F)F)CCC3` [Compound 113, N-(2,6-Diethylphenyl)-N'-[3-(2-trifluoromethylphenyl)-6,7-dihydro-5H-cyclopenta[f][1]-benzothiophen-2-yl]urea], for which the inhibition at 0.01 µM came out at 43.5%.

Regarding `Cc1ccccc1-c1c(NC(=O)Nc2ccc(F)cc2F)sc2cc3c(cc12)CCCC3` [Compound 119, N-(2,4-Difluorophenyl)-N'-[3-(2-methylphenyl)5,6,7,8-tetrahydronaphtho [2,3-b]thiophen-2-yl]urea], the inhibition at 0.01 µM was 79.5%.

On to `Cc1ccc(S(=O)(=O)n2c(NC(=O)Nc3ccc(F)cc3F)c(-c3ccccc3)c3ccccc32)cc1` [Compound 120, N-(2,4-Difluorophenyl)-N'-[3-phenyl-1-(p-toluenesulfonyl)-3-phenylindole-2-yl]urea], for which the inhibition at 1 µM was found to be 60.4%.

`Cc1ccc(S(=O)(=O)n2c(NC(=O)Nc3c(C)cccc3C(C)C)c(-c3ccccc3Cl)c3cc(C)cc(C)c32)cc1` [Compound 121, N-[3-(2-chlorophenyl)-5,7-dimethyl-1-(p-toluenesulfonyl)indole-2-yl]-N'-(2-isopropyl-6-methylphenyl)urea]: the inhibition at 1 µM was determined as 85.8%.

Consider `Cc1ccc(S(=O)(=O)n2c(NC(=O)Nc3ccc(F)cc3F)c(-c3ccccc3Cl)c3cc(C)cc(C)c32)cc1` [Compound 122, N-[3-(2-Chlorophenyl)-5,7-dimethyl-1-(p-toluenesulfonyl)indole-2-yl]-N'-(2,4-difluorophenyl)urea], for which the inhibition at 1 µM is 75.4%.

As for `Cc1cc(C)c2c(c1)c(-c1ccccc1Cl)c(NC(=O)Nc1ccc(F)cc1F)n2C` [Compound 124, N-[3-(2-Chlorophenyl)-5,7-dimethyl-1-methylindole-2-yl]-N'-(2,4-difluorophenyl)urea], the inhibition at 1 µM was 81.7%.

These data come from patent USRE36832E, “N-heteroaryl-N'-phenylurea derivatives, their production and use” (Nihon Nohyaku Co., LTD, priority 1993, dated 2000).
